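These data come from cells grown in 96-well plates and exposed to compound for 48 hours at five concentrations. At the GI50, growth is halved. TGI is the concentration that stops growth completely.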
Key:
Test in all cases: DTP human tumour cell line panel, 48 h
OVCAR-5 ovarian = tested on: OVCAR-5 ovarian
SK-MEL-2 melanoma = tested on: SK-MEL-2 melanoma
ACHN renal = tested on: ACHN renal
IGROV1 ovarian = tested on: IGROV1 ovarian
SR leukemia = tested on: SR leukemia
SF-268 CNS = tested on: SF-268 CNS
HCT-116 colon = tested on: HCT-116 colon
HOP-62 NSCLC = tested on: HOP-62 NSCLC
LOX IMVI melanoma = tested on: LOX IMVI melanoma
HCC-2998 colon = tested on: HCC-2998 colon

| Compound | TGI (OVCAR-5 ovarian) [µM] | TGI (SK-MEL-2 melanoma) [µM] | TGI (ACHN renal) [µM] | TGI (IGROV1 ovarian) [µM] | TGI (SR leukemia) [µM] | TGI (SF-268 CNS) [µM] | TGI (HCT-116 colon) [µM] | TGI (HOP-62 NSCLC) [µM] | GI50 (OVCAR-5 ovarian) [µM] | GI50 (SK-MEL-2 melanoma) [µM] | GI50 (ACHN renal) [µM] | GI50 (IGROV1 ovarian) [µM] | GI50 (SR leukemia) [µM] | GI50 (SF-268 CNS) [µM] | GI50 (HCT-116 colon) [µM] | GI50 (HOP-62 NSCLC) [µM] | GI50 (LOX IMVI melanoma) [µM] | TGI (LOX IMVI melanoma) [µM] | TGI (HCC-2998 colon) [µM] | GI50 (HCC-2998 colon) [µM] |
| --- | --- | --- | --- | --- | --- | --- | --- | --- | --- | --- | --- | --- | --- | --- | --- | --- | --- | --- | --- | --- |
| CCN(CC)CCNc1c(OC)cc(C)c2sc3ccccc3c(=O)c12 | 13.4 | 27.9 | 15.8 | 20.7 | 5.33 | 25.7 | 16.3 | 25 | – | – | – | – | – | – | – | – | – | – | – | – |
| CC(=O)Oc1cc(C)ccc1[C@]1(C)CC[C@H](C)/C1=C\Br | 19.5 | 24.7 | 20.1 | 26.6 | 12.8 | 17.9 | 18.8 | 22.2 | 6.9 | 7.21 | 5.7 | 7.6 | 2.72 | 4.76 | 4.44 | 9.22 | 4.77 | 17.1 | – | – |
| CCOC(=O)C(C)(C)Oc1ccc2c(=O)cc(-c3ccc(Cl)cc3)oc2c1 | – | > 100 | > 100 | > 100 | > 100 | > 100 | > 100 | > 100 | – | – | – | – | – | – | – | – | – | > 100 | > 100 | – |
| CCOC(=O)CCC(=O)C1c2cccc(O)c2C(=O)c2c(O)cccc21 | 3.38 | – | 2.9 | 4.72 | 7.29 | – | 2.6 | 3.8 | – | – | – | – | – | – | – | – | – | 1.89 | 2.31 | – |
| Oc1ccc(Br)cc1Sc1cc(Br)ccc1O | 32.1 | 17.7 | 20.8 | 36.3 | 25.3 | 26.7 | 24.3 | 30.2 | 15.8 | 5.62 | 6.4 | 15.7 | 5.39 | 7.68 | 6 | 13.6 | 4.89 | 17.6 | – | – |
| O=C(Nc1ccc(Cl)cc1)Nc1ccc(Cl)c(Cl)c1 | > 100 | 32.8 | > 100 | > 100 | – | > 100 | > 100 | > 100 | 4.29 | 3.07 | 3.71 | 4.78 | – | 4.36 | 3.5 | 4.7 | 3.39 | > 100 | 44.5 | 3.9 |
| CC1CC(c2ccccc2)=Nc2ccccc2S1(=O)=O (centres undefined) | 35.7 | 31.3 | 30.1 | 37.8 | – | 31.4 | 3.13 | 39.8 | – | – | – | – | – | – | – | – | – | 31 | 19.5 | – |
| COc1cc2c(cc1OCc1ccccc1)N=C[C@@H]1C/C(=C/C(=O)NCCCN3C(=O)c4cccc5cccc(c45)C3=O)CN1C2=O | 14.4 | – | > 61.4 | – | > 100 | 5.01 | > 100 | > 40.3 | 0.617 | – | 3.82 | 0.468 | > 100 | 0.314 | 0.538 | 0.583 | 0.277 | > 35.8 | 1.26 | 0.142 |
| CC(=O)N/C(=C\c1ccc(/C=C(\NC(C)=O)c2nc3ccc(Cl)cc3[nH]2)cc1)c1nc2ccccc2[nH]1 | > 100 | > 100 | > 100 | > 100 | > 100 | > 100 | > 100 | > 100 | – | – | – | – | – | – | – | – | – | – | – | – |
| Cc1cc2nc3c(C(OC4OC(CO)C(O)C(O)C4O)C(O)CO)nn(-c4ccccc4)c3nc2cc1C (centres undefined) | > 100 | – | > 100 | – | > 100 | > 100 | > 100 | > 100 | – | – | – | – | – | – | – | – | – | > 100 | > 100 | – |
| COP1(=O)CC2C(Cl)(Cl)C2(C)C1 (centres undefined) | – | – | – | > 100 | – | > 100 | > 100 | > 100 | – | – | – | – | – | – | – | – | – | > 100 | > 100 | – |
| Nc1ccc(C(=O)N/C(=C\C=C\c2ccco2)c2nc3[nH]c(=S)[nH]c(=O)c3[nH]2)cc1 | > 100 | > 100 | > 100 | > 100 | > 100 | > 100 | – | – | – | – | – | – | – | – | – | – | – | – | > 100 | – |
| CN(C)c1ccc(/C=C2\Oc3cc(O)ccc3C2=O)cc1 | – | – | > 100 | > 100 | > 100 | > 100 | > 100 | > 100 | – | – | – | – | – | – | – | – | – | – | > 100 | – |
| CCN(CC)CCCCC1CCN(CC(=O)N2CC(C)C(=O)Nc3ccccc32)CC1 (centres undefined) | > 100 | – | > 100 | > 100 | > 100 | > 100 | > 100 | > 100 | – | – | – | – | – | – | – | – | – | > 100 | > 100 | – |
| CCCCCCC/C=C/[C@H]1O[C@]23C(=O)C[C@@]4(C[C@@H](OC5OC(CO)C(O)C(O)C5O)C[C@@H]4[C@H]2C=C1C)OC3=O (some centres undefined) | 14.7 | 15.1 | 8.65 | 26.7 | 13.6 | 11.1 | 6.03 | – | 6.06 | 5.33 | 4.31 | 5.67 | 1.35 | 5.12 | 1.68 | – | 2.4 | 6.84 | 9.39 | 4.44 |
| O=C(O)C1CCc2ccc3ccccc3c2C1c1cccc2ccccc12 (centres undefined) | 37.9 | 38.6 | > 100 | 63.3 | 49.9 | 91.7 | 28.9 | 35.9 | – | – | – | – | – | – | – | – | – | 36.3 | – | – |
| c1cnc2c(c1)-n1cccc1C1(CCSCC1)NN2 | > 100 | > 100 | > 100 | – | > 100 | > 100 | > 100 | > 100 | – | – | – | – | – | – | – | – | – | > 100 | > 100 | – |
| COC(=O)c1c(-c2ccccc2)cc2c3cc(-c4ccccc4)c(C(=O)OC)n3c3ccccc3n12 | > 100 | > 100 | > 100 | > 100 | – | > 100 | > 100 | > 100 | – | – | – | – | – | – | – | – | – | > 100 | > 100 | – |
| CC1(C)C=CC[C@]2(C)[C@H]3CC[C@@H]4[C@H]5[C@H](C(=O)/C=C/c6cccnc6)CC[C@]5(CO)CC[C@@]4(C)[C@]3(C)CC[C@@H]12 | 2.83 | 2.76 | 2.35 | 2.77 | 3.7 | – | 2.32 | 3.11 | 1.32 | 1.28 | 1.14 | 1.31 | 0.631 | – | 1.05 | 1.54 | – | – | – | – |
